According to patent publication US12365664B2, “Small molecule inhibitors of SRC tyrosine kinase” (Dana-Farber Cancer Institute, Inc., priority 2019, dated 2025):

Key:
[1] = target: SRC (Homo sapiens (Human), UniProt P12931); assay: SelectScreen Kinase Profiling Services commercial assay (ThermoFisher), SRC; assay type: biochemical
[2] = target: YES1 (Homo sapiens (Human), UniProt P07947); assay: SelectScreen Kinase Profiling Services commercial assay (ThermoFisher), YES1; assay type: biochemical
YES1, sequence (P07947 whole entry): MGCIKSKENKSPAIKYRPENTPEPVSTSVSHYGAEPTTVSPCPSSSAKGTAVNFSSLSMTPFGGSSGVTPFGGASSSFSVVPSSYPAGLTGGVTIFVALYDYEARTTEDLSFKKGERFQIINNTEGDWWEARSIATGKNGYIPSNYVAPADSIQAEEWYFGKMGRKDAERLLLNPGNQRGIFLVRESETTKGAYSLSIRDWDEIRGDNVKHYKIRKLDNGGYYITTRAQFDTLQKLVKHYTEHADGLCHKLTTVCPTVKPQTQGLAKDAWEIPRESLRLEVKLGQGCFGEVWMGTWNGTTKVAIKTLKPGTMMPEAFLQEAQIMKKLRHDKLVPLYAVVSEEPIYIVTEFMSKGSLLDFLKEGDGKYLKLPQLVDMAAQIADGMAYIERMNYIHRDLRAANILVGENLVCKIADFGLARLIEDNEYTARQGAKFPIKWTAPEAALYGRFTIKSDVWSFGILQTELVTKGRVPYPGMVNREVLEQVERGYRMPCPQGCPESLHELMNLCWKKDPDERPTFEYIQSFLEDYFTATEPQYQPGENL

SRC, sequence (P12931 whole entry): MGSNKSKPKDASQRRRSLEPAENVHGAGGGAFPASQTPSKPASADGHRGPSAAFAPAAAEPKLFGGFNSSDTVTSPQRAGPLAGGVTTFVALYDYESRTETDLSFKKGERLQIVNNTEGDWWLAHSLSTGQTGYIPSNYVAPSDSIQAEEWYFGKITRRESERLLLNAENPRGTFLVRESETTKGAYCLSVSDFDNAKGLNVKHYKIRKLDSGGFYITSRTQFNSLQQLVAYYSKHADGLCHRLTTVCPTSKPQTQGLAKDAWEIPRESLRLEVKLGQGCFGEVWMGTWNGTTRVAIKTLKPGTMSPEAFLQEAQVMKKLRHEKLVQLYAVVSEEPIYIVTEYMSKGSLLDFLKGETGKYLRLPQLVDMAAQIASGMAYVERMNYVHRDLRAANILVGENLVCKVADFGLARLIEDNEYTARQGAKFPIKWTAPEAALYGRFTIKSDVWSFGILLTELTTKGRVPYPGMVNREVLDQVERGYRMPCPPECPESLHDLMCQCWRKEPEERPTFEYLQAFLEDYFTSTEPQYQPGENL

| Compound | IC50 [1] | IC50 [2] |
| --- | --- | --- |
| C=CC(=O)Nc1ccccc1Nc1nc(Nc2ccc(N3CCN(C)CC3)cc2)ncc1CC [Compound 2, N-{2-[(5-ethyl-2-{[4-(4-methylpiperazin-1-yl)phenyl]amino}pyrimidin-4-yl)amino]phenyl}prop-2-enamide] | 1 to 10 nM | 1 to 10 nM |
| C=CC(=O)Nc1ccccc1Nc1nc(Nc2ccc(N3CCN(C)CC3)cc2)ncc1C [Compound 4, N-{2-[(5-methyl-2-{[4-(4-methylpiperazin-1-yl)phenyl]amino}pyrimidin-4-yl)amino]phenyl}prop-2-enamide] | 1 to 10 nM | 1 to 10 nM |
| C=CC(=O)Nc1ccccc1Nc1nc(Nc2ccc(N3CCN(C)CC3)cc2)ncc1-c1cccs1 [Compound 6, N-(2-((2-((4-(4-methylpiperazin-1-yl)phenyl)amino)-5-(thiophen-2-yl)pyrimidin-4-yl)amino)phenyl)acrylamide] | 1 to 10 nM | 1 to 10 nM |
| C=CC(=O)Nc1ccccc1Nc1nc(Nc2ccc(N3CCN(C)CC3)cc2)ncc1-c1ccc(OC)nc1 [Compound 9, N-(2-((5-(6-methoxypyridin-3-yl)-2-((4-(4-methylpiperazin-1-yl)phenyl)amino)pyrimidin-4-yl)amino)phenyl)acrylamide] | 1 to 10 nM | 1 to 10 nM |
| C=CC(=O)Nc1ccccc1Nc1nc(Nc2ccc(N3CCN(C)CC3)cc2)nc2ccsc12 [Compound 11, N-{2-[(2-{[4-(4-methylpiperazin-1-yl)phenyl]amino}thieno[3,2-d]pyrimidin-4-yl)amino]phenyl}prop-2-enamide] | 1 to 10 nM | 1 to 10 nM |
| C=CC(=O)Nc1ccccc1Nc1nc(Nc2ccc(N3CCN(C)CC3)cc2)nc(N)c1Cl [Compound 13, N-{2-[(6-amino-5-chloro-2-{[4-(4-methylpiperazin-1-yl)phenyl]amino}pyrimidin-4-yl)amino]phenyl}prop-2-enamide] | 10 to 100 nM | 1 to 10 nM |
| C=CC(=O)Nc1ccccc1Nc1nc(Nc2ccc(N3CCN(C)CC3)cc2)nc2sccc12 [Compound 14, N-{2-[(2-{[4-(4-methylpiperazin-1-yl)phenyl]amino}thieno[2,3-d]pyrimidin-4-yl)amino]phenyl}prop-2-enamide] | 100 to 1000 nM | 10 to 100 nM |
| C=CC(=O)Nc1ccccc1Nc1nc(Nc2ccc(N3CCN(C)CC3)cc2)ncc1OCc1ccc(C)cc1 [Compound 15, N-(2-((5-((4-methylbenzyl)oxy)-2-((4-(4-methylpiperazin-1-yl)phenyl)amino)pyrimidin-4-yl)amino)phenyl)acrylamide] | 1 to 10 nM | 1 to 10 nM |
| C=CC(=O)Nc1ccccc1Nc1nc(Nc2ccc(N3CCN(C)CC3)cc2)ncc1OCc1c(C)cccc1Cl [Compound 17, N-(2-((5-((2-chloro-6-methylbenzyl)oxy)-2-((4-(4-methylpiperazin-1-yl)phenyl)amino)pyrimidin-4-yl)amino)phenyl)acrylamide] | 1 to 10 nM | – |
| C=CC(=O)Nc1ccccc1Nc1nc(Nc2ccc(N3CCN(C)CC3)cc2)ncc1C(=O)NCc1ccc(Oc2ccccc2)cc1 [Compound 19, 2-{[4-(4-methylpiperazin-1-yl)phenyl]amino}-N-[(4-phenoxyphenyl)methyl]-4-{[2-(prop-2-enamido)phenyl]amino}pyrimidine-5-carboxamide] | > 10000 nM | > 10000 nM |
| C=CC(=O)Nc1ccccc1Nc1nc(Nc2ccc(N3CCN(C)CC3)cc2)ncc1C(=O)Nc1c(C)cccc1C [Compound 28, N-(2,6-dimethylphenyl)-2-{[4-(4-methylpiperazin-1-yl)phenyl]amino}-4-{[2-(prop-2-enamido)phenyl]amino}pyrimidine-5-carboxamide] | 1 to 10 nM | < 1 nM |
| C=CC(=O)Nc1ccccc1Nc1nc(Nc2ccc(N3CCN(C)CC3)cc2)ncc1C(=O)Nc1c(C)cc(C(=O)O)cc1Cl [Compound 30, 3-chloro-5-methyl-4-(2-{[4-(4-methylpiperazin-1-yl)phenyl]amino}-4-{[2-(prop-2-enamido)phenyl]amino}pyrimidine-5-amido)benzoic acid] | > 10000 nM | – |
| C=CC(=O)Nc1cccc(C)c1Nc1nc(Nc2ccc(N3CCN(C)CC3)cc2)ncc1Cl [Compound 31, N-{2-[(5-chloro-2-{[4-(4-methylpiperazin-1-yl)phenyl]amino}pyrimidin-4-yl)amino]-3-methylphenyl}prop-2-enamide] | 1000 to 10000 nM | 100 to 1000 nM |
| C=CC(=O)Nc1ccc(C)cc1Nc1nc(Nc2ccc(N3CCN(C)CC3)cc2)ncc1Cl [Compound 32, N-{2-[(5-chloro-2-{[4-(4-methylpiperazin-1-yl)phenyl]amino}pyrimidin-4-yl)amino]-4-methylphenyl}prop-2-enamide] | 10 to 100 nM | 1 to 10 nM |
| C=CC(=O)Nc1ccc(C)cc1Nc1nc(Nc2ccc(N3CCN(C)CC3)cc2)ncc1C(=O)Nc1c(C)cccc1Cl [Compound 35, N-(2-chloro-6-methylphenyl)-4-{[5-methyl-2-(prop-2-enamido)phenyl]amino}-2-{[4-(4-methylpiperazin-1-yl)phenyl]amino}pyrimidine-5-carboxamide] | 10 to 100 nM | – |
| C=CC(=O)Nc1c(F)cccc1Nc1nc(Nc2ccc(N3CCN(C)CC3)cc2)ncc1Cl [Compound 39, N-{2-[(5-chloro-2-{[4-(4-methylpiperazin-1-yl)phenyl]amino}pyrimidin-4-yl)amino]-6-fluorophenyl}prop-2-enamide] | 1 to 10 nM | – |
| C=CC(=O)Nc1cc(F)ccc1Nc1nc(Nc2ccc(N3CCN(C)CC3)cc2)ncc1Cl [Compound 40, N-{2-[(5-chloro-2-{[4-(4-methylpiperazin-1-yl)phenyl]amino}pyrimidin-4-yl)amino]-5-fluorophenyl}prop-2-enamide] | 1 to 10 nM | – |
| C=CC(=O)Nc1cccc(F)c1Nc1nc(Nc2ccc(N3CCN(C)CC3)cc2)ncc1C(=O)Nc1c(C)cccc1Cl [Compound 42, N-(2-chloro-6-methylphenyl)-4-{[2-fluoro-6-(prop-2-enamido)phenyl]amino}-2-{[4-(4-methylpiperazin-1-yl)phenyl]amino}pyrimidine-5-carboxamide] | 1 to 10 nM | < 1 nM |
| C=CC(=O)Nc1ccc(C)cc1Nc1nc(Nc2ccc(N3CCN(C)CC3)cc2)nc2ccsc12 [Compound 46, N-{4-methyl-2-[(2-{[4-(4-methylpiperazin-1-yl)phenyl]amino}thieno[3,2-d]pyrimidin-4-yl)amino]phenyl}prop-2-enamide] | 100 to 1000 nM | 10 to 100 nM |
| C=CC(=O)Nc1ccc(C)cc1Nc1nc(Nc2ccc(N3CCN(C)CC3)cc2)nc2ccoc12 [Compound 47, N-{4-methyl-2-[(2-{[4-(4-methylpiperazin-1-yl)phenyl]amino}furo [3,2-d]pyrimidin-4-yl)amino]phenyl}prop-2-enamide] | 100 to 1000 nM | 10 to 100 nM |
| C=CC(=O)Nc1cccc(CNc2nc(Nc3ccc(N4CCN(C)CC4)cc3)ncc2C(=O)Nc2c(C)cccc2Cl)c1 [Compound 49] | 10 to 100 nM | – |
| C=CC(=O)Nc1ccccc1CNc1nc(Nc2ccc(N3CCN(C)CC3)cc2)ncc1C(=O)Nc1c(C)cccc1Cl [Compound 50] | 1 to 10 nM | – |
| C=CC(=O)Nc1ccc(CNc2nc(Nc3ccc(N4CCN(C)CC4)cc3)ncc2C(=O)Nc2c(C)cccc2Cl)cc1 [Compound 51] | 10 to 100 nM | – |
| C=CC(=O)Nc1ccccc1Nc1nc(Nc2ccc(N3CCN(C)CC3)cc2)ncc1Cl [SM1-71, reference compound] | 1 to 10 nM | 1 to 10 nM |
